Data: ChEMBL document CHEMBL1909046, “DrugMatrix in vitro pharmacology data”

How the values were obtained:
[1] = DRUGMATRIX: Calcium Channel Type L, Benzothiazepine radioligand binding (ligand: [3H] Diltiazem); assay type: cell membranes, Rattus norvegicus, Wistar, Brain, Membrane; details: Not Active = under 50% inhibition at 10 µM
[2] = biological target: Tyrosine-protein kinase Fyn (Homo sapiens, UniProt P06241); experiment: biochemical; assay type: cell-based, Insect cells; details: insect cells;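 also: enzymatic inhibition of Fyn kinase activity measured with Poly(Glu:Tyr) as the phosphorylation substrate; in other assays of this panel Not Active means under 50% inhibition at 10 µM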
Chain of Tyrosine-protein kinase Fyn (P06241 whole entry): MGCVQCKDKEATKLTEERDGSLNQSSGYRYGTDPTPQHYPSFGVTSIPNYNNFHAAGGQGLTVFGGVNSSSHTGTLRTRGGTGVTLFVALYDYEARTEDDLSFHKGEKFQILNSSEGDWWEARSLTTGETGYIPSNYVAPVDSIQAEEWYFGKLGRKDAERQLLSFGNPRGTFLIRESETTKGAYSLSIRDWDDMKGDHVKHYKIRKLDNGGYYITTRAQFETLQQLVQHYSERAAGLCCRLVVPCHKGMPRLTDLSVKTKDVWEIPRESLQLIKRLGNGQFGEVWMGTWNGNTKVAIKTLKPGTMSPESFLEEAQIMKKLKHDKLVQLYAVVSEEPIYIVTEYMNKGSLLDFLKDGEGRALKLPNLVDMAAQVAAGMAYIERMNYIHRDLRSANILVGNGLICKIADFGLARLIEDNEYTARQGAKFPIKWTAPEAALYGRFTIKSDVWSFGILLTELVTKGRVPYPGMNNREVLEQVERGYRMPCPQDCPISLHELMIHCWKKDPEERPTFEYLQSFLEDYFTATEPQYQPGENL

Vasopressin V1a receptor = Vasopressin V1a receptor (Homo sapiens, UniProt P37288); assay type: cell membranes, Membrane; details: hek293; also: in other assays of this panel Not Active means under 50% inhibition at 10 µM
Chain of Vasopressin V1a receptor (P37288 whole entry): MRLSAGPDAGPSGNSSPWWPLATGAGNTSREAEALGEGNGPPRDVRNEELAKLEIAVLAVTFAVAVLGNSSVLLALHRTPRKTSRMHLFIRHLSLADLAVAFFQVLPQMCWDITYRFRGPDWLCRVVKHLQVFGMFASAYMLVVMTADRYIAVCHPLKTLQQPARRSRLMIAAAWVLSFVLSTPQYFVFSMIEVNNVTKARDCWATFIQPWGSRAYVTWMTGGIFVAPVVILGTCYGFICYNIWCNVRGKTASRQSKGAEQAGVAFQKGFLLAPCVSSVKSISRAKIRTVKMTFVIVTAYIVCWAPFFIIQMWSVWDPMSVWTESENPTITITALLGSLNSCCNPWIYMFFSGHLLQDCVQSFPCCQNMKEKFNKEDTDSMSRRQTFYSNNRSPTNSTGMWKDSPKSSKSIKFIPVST

[3] = biological target: Protein kinase C alpha type (Homo sapiens, UniProt P17252); assay type: cell-based; details: sf9;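 also: inhibition of PKCalpha kinase activity measured in an enzyme assay with histone as the phosphorylation substrate; in other assays of this panel Not Active means under 50% inhibition at 10 µM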
[4] = DRUGMATRIX: ATPase, Na+/K+ enzyme inhibition (substrate: ATP); assay type: tissue-based, Sus scrofa, Heart; details: Not Active = under 50% inhibition at 10 µM
Cathepsin G = biological target: T1, Cathepsin G (Homo sapiens, UniProt P08311); assay type: tissue-based; details: neutrophil;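 also: inhibition of Cathepsin G enzyme activity, tested on an AMC-conjugated peptide substrate; in other assays of this panel Not Active means under 50% inhibition at 10 µM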
T1 sequence (P08311 whole entry): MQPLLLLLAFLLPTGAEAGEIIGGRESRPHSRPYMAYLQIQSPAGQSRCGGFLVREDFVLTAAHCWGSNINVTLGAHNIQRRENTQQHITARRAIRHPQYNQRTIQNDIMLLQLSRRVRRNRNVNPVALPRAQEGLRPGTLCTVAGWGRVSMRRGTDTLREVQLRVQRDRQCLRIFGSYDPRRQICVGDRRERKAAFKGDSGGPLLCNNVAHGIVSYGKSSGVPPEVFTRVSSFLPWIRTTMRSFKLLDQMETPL

[5] = biological target: C-C chemokine receptor type 5 (Homo sapiens, UniProt P51681); assay type: cell membranes, Membrane; details: hek293; also: in other assays of this panel Not Active means under 50% inhibition at 10 µM
Chain of C-C chemokine receptor type 5 (P51681 whole entry): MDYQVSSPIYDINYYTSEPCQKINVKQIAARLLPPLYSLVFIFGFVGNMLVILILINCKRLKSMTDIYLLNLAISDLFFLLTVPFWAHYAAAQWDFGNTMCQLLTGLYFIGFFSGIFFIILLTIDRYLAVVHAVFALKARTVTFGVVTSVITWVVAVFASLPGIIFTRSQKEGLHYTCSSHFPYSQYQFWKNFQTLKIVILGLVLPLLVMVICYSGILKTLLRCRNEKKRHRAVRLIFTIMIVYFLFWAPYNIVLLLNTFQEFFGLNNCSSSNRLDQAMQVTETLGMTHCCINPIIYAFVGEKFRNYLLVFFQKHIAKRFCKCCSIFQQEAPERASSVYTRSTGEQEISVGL

[6] = biological target: T2, 5-hydroxytryptamine receptor 1A (Rattus norvegicus, UniProt P19327); assay type: cell membranes, CHO-K1, Membrane; details: cho-k1; also: in other assays of this panel Not Active means under 50% inhibition at 10 µM
T2 sequence (P19327 whole entry): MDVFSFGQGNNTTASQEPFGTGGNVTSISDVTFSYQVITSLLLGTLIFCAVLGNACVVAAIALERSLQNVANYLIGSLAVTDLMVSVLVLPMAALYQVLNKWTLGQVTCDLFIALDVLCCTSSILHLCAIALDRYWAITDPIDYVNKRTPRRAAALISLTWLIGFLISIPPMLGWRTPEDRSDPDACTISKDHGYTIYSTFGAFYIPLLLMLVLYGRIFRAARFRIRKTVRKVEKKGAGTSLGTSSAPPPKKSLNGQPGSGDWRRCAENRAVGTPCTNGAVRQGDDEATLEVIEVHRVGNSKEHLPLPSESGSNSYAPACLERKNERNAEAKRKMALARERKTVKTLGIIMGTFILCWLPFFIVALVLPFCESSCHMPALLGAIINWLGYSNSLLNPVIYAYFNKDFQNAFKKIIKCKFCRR

[7] = biological target: Sodium-dependent dopamine transporter (Homo sapiens, UniProt Q01959); experiment: DRUGMATRIX: Dopamine Transporter radioligand binding (ligand: [125I] RTI-55); assay type: cell membranes, CHO-K1, Membrane; details: cho-k1; Not Active = under 50% inhibition at 10 µM
Chain of Sodium-dependent dopamine transporter (Q01959 whole entry): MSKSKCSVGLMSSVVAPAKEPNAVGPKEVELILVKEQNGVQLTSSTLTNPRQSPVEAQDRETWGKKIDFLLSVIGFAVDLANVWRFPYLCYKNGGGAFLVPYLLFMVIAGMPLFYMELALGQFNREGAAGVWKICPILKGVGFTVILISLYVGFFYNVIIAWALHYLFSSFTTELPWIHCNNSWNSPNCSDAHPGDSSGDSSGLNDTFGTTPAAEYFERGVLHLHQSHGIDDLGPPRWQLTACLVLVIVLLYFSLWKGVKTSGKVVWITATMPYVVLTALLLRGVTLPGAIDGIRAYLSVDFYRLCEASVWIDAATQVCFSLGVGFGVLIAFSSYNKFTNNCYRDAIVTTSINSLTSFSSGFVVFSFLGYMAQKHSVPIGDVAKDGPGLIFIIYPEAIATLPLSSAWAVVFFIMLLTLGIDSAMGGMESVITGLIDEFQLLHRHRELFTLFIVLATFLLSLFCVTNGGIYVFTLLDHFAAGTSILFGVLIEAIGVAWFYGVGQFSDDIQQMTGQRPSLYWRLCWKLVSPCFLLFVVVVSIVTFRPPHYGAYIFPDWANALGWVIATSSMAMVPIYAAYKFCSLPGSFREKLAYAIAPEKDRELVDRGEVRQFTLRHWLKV

[8] = biological target: T3, Alpha-1D adrenergic receptor (Homo sapiens, UniProt P25100); assay type: cell membranes, HEK293, Membrane; details: hek293; also: in other assays of this panel Not Active means under 50% inhibition at 10 µM
T3 sequence (P25100 whole entry): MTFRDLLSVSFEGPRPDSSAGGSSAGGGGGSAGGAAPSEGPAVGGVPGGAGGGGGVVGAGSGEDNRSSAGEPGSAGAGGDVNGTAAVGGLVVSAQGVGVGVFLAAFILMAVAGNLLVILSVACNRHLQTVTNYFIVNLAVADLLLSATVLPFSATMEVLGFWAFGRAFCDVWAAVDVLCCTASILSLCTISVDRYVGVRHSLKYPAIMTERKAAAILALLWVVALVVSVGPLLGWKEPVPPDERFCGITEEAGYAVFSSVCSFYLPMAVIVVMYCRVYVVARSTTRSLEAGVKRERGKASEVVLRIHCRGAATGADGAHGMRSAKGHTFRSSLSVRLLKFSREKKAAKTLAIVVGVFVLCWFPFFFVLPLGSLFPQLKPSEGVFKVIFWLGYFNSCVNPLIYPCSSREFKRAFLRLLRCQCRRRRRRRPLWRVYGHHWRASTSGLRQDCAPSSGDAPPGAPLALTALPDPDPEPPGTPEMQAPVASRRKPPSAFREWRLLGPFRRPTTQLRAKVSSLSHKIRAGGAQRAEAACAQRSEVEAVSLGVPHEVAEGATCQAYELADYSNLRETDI

[9] = biological target: T4, Alpha-1A adrenergic receptor (Rattus norvegicus, UniProt P43140); experiment: DRUGMATRIX: Alpha-1A adrenergic receptor radioligand binding (ligand: prazosin); assay type: cell membranes, Wistar, Submaxillary gland, Membrane; details: Not Active = under 50% inhibition at 10 µM
T4 sequence (P43140 whole entry): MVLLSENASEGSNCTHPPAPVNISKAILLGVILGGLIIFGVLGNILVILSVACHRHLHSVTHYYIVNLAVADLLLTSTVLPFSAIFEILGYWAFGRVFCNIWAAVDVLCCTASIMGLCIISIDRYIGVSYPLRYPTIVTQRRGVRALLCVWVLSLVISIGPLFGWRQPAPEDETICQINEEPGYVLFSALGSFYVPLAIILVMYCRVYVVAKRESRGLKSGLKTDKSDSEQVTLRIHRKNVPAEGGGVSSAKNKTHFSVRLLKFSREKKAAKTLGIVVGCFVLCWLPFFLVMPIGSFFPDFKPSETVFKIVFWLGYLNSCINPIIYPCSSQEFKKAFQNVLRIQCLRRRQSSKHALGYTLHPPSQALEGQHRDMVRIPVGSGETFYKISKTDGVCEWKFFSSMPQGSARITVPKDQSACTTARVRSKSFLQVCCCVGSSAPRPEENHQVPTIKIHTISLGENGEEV

[10] = biological target: cGMP-specific 3',5'-cyclic phosphodiesterase (Homo sapiens, UniProt O76074); experiment: DRUGMATRIX: Phosphodiesterase PDE5 enzyme inhibition (substrate: [3H]cGMP + cGMP); assay type: tissue-based, Platelet; details: Not Active = under 50% inhibition at 10 µM
Histamine H2 receptor = Histamine H2 receptor (Homo sapiens, UniProt P25021); assay type: cell membranes, CHO-K1, Membrane; details: cho-k1; also: in other assays of this panel Not Active means under 50% inhibition at 10 µM
Chain of Histamine H2 receptor (P25021 whole entry): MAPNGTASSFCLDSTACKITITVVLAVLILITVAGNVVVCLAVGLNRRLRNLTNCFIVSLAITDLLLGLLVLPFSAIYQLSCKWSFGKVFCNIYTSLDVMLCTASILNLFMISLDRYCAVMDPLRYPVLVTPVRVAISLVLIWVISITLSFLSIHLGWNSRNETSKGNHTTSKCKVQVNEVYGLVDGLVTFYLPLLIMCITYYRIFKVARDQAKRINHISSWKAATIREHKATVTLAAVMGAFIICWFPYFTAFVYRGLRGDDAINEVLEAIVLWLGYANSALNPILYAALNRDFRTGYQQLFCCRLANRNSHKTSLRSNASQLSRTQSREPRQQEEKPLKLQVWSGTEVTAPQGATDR

[11] = DRUGMATRIX: beta-Lactamase enzyme inhibition (substrate: Nitrocefin); set-up: species or system Bacillus cereus; details: Not Active = under 50% inhibition at 10 µM

SMILES | IC50 [1] | Ki [1] | IC50 [2] | IC50 (Vasopressin V1a receptor) | IC50 [3] | IC50 [4] | Ki [4] | IC50 (Cathepsin G) | IC50 [5] | IC50 [6] | IC50 [7] | IC50 [8] | IC50 [9] | IC50 ([10]; platelet) | IC50 (Histamine H2 receptor) | IC50 [11] | Ki [11] | IC50 ([10]; read-out: IC50) [nM]
COc1ccc2c(c1)c(CC(=O)OCC(=O)O)c(C)n2C(=O)c1ccc(Cl)cc1 [ACEMETACIN] | Not Active | Not Active | Not Active | Not Active | Not Active | Not Active | Not Active | Not Active | Not Active | Not Active | Not Active | Not Active | Not Active | Not Active | Not Active | Not Active | Not Active | 
CCCSc1ccc2nc(NC(=O)OC)[nH]c2c1 [ALBENDAZOLE] | Not Active | Not Active | Not Active | Not Active | Not Active | Not Active | Not Active | Not Active | Not Active | Not Active | Not Active | Not Active | Not Active | Not Active | Not Active | Not Active | Not Active | 
Cc1[nH]cnc1CN1CCc2c(c3ccccc3n2C)C1=O [ALOSETRON] | Not Active | Not Active | Not Active | Not Active | Not Active | Not Active | Not Active | Not Active | Not Active | Not Active | Not Active | Not Active | Not Active | Not Active | Not Active | Not Active | Not Active | 
O=c1cc(-c2ccccc2)oc2c1ccc1ccccc12 [ALPHA-NAPHTHOFLAVONE] | Not Active | Not Active | Not Active | Not Active | Not Active | Not Active | Not Active | Not Active | Not Active | Not Active | Not Active | Not Active | Not Active |  | Not Active | Not Active | Not Active | 2300
NCC[C@H](O)C(=O)N[C@@H]1C[C@H](N)[C@@H](O[C@H]2O[C@H](CN)[C@@H](O)[C@H](O)[C@H]2O)[C@H](O)[C@H]1O[C@H]1O[C@H](CO)[C@@H](O)[C@H](N)[C@H]1O [AMIKACIN] | Not Active | Not Active | Not Active | Not Active | Not Active | Not Active | Not Active | Not Active | Not Active | Not Active | Not Active | Not Active | Not Active | Not Active | Not Active | Not Active | Not Active | 
CC1(C)S[C@@H]2[C@H](NC(=O)[C@H](N)c3ccc(O)cc3)C(=O)N2[C@H]1C(=O)O [AMOXICILLIN] | Not Active | Not Active | Not Active | Not Active | Not Active | Not Active | Not Active | Not Active | Not Active | Not Active | Not Active | Not Active | Not Active | Not Active | Not Active | Not Active | Not Active | 
CCOC(=O)OC(C)OC1=C(C(=O)Nc2ccccn2)N(C)S(=O)(=O)c2ccccc21 (stereo not drawn) [AMPIROXICAM] | Not Active | Not Active | Not Active | Not Active | Not Active | Not Active | Not Active | Not Active | Not Active | Not Active | Not Active | Not Active | Not Active | Not Active | Not Active | Not Active | Not Active | 
N#C[C@H](O[C@@H]1O[C@H](CO[C@@H]2O[C@H](CO)[C@@H](O)[C@H](O)[C@H]2O)[C@@H](O)[C@H](O)[C@H]1O)c1ccccc1 [AMYGDALIN] | Not Active | Not Active | Not Active | Not Active | Not Active | Not Active | Not Active | Not Active | Not Active | Not Active | Not Active | Not Active | Not Active | Not Active | Not Active | Not Active | Not Active | 
N=C(N)NCCCCNC(=N)N.O=S(=O)(O)O [ARCAINE SULFATE] | Not Active | Not Active | Not Active | Not Active | Not Active | Not Active | Not Active | Not Active | Not Active | Not Active | Not Active | Not Active | Not Active | Not Active | Not Active | Not Active | Not Active | 
